Our source for the viability values is publication PMC12040169 (PLOS Biology, 2025).

The term viability denotes a read-out of living cells in per cent, often relative to untreated cells.

One data set in a line: in vitro. The conditions noted are these: human, hela cells, % viability.
With `CCc1c[nH]c(SCC(=O)c2cc(C)n(C3CCS(=O)(=O)C3)c2C)n1` (centres unmarked) [CBK306486], the viability at 28.5 h, 10 µM stood at 83.5%. As to `O=C([C@@H]1C[C@@H]2C=C[C@H]1C2)N1CCC(c2noc3cc(F)ccc23)CC1` [CBK281542], the viability at 28.5 h, 10 µM amounted to 76.5%. As to `CCN(CC(=O)N1CCN(Cc2ccc3c(c2)OCO3)CC1)S(=O)(=O)c1ccccc1` [CBK269436], the viability at 28.5 h, 10 µM worked out at 92.3%.

In the case of `Cc1ccc(C(=O)NCCNc2cnccn2)cc1S(C)(=O)=O` [CBK246280], the viability at 28.5 h, 10 µM worked out at 103%. In the case of `C[C@H](NC(=O)OC(C)(C)C)C(=O)NC[C@H]1CC[C@H](C(=O)O)CC1` [CBK286741], the viability at 28.5 h, 10 µM was 98.7%. Turning to `O=C(O)c1cccc(-n2cc(-c3cccc(C(F)(F)F)c3)nn2)c1` [CBK112949], the viability at 28.5 h, 10 µM was 114%. On to `CCn1cc(CN(CCN(C)C)Cc2ccc(C)o2)c(C)n1` [CBK282845], for which the viability at 28.5 h, 10 µM worked out at 79.6%. Still for that read-out and setting: as for `O=C(O)c1ccccc1C(=O)c1ccc(Oc2ncc(C(F)(F)F)cc2Cl)cc1` [CBK161648], the figure is 106%; as for `Cc1oc(-c2ccccc2)cc1C(=O)Nc1cc2ccccc2c(N2CCNCC2)n1` [CBK038938T], 104%. Take `COC(=O)c1cc(S(=O)(=O)NC2CCCc3ccccc32)cn1C` (centres unmarked) [CBK304616]: the viability at 28.5 h, 10 µM worked out at 98.4%. Regarding `Nc1nc(/C=C/c2cccs2)nc(-c2ccccc2O)n1` [CBK270033], the viability at 28.5 h, 10 µM stood at 105%.

Regarding `COc1ccc(C(Nc2ccnc(OC)c2C#N)[C@H]2C[C@@H](O)C2)cn1` (some centres unmarked) [CBK306980], the viability at 28.5 h, 10 µM amounted to 84.6%. Turning to `COc1ccc2cc(Br)ccc2c1CC(=O)Nc1ccccc1[N+](=O)[O-]` [CBK268823], the viability at 28.5 h, 10 µM was 95.8%. Consider `Nc1ncc(-c2ccoc2)nc1N1CCN(CCO)CC1` [CBK063428], for which the viability at 28.5 h, 10 µM was found to be 98.8%. Regarding `CC(C)Nc1nccnc1Sc1nc[nH]n1` [CBK115205], the viability at 28.5 h, 10 µM stood at 97.5%.

Consider `CCOC(=O)C(C)NC(=O)c1cc2ccc(F)cc2[nH]1` (centres unmarked) [CBK283214], for which the viability at 28.5 h, 10 µM was 107%. Turning to `O=C(CCN1C(=O)[C@@H]2Cc3ccccc3CN2C1=O)N[C@H](C(=O)O)c1ccccc1` [CBK286751], the viability at 28.5 h, 10 µM amounted to 88.7%. As for `Cc1nnc(NC(=O)c2ccc3c(c2)OCO3)s1` [CBK287358], the viability at 28.5 h, 10 µM is 104%. With `Cc1csc2c(C3CCCN(C(=O)c4ccccn4)C3)nc(C)n12` (centres unmarked) [CBK284594], the viability at 28.5 h, 10 µM worked out at 98.6%. Take `COc1ccc(-c2nnc3[nH]c(=O)n(C)c(=O)c3n2)cc1OC` [CBK263914]: the viability at 28.5 h, 10 µM is 89%.

`Cc1nn(C)c(C)c1CN(C)C(=O)CCC1CCCO1` (centres unmarked) [CBK283078]: the viability at 28.5 h, 10 µM is 99.7%. For the compound `COc1ccc(C(=O)NCC2(c3ccc(OC)c(OC)c3)CCCCC2)c(OC)c1` [CBK067049], the viability at 28.5 h, 10 µM amounted to 82.8%. Take `Clc1ccc(-c2ccc(CNCCCN3CCOCC3)o2)cc1` [CBK269562C]: the viability at 28.5 h, 10 µM stood at 90.5%. Same read-out and setting: in the case of `O=C(Nc1ccc(Cl)nc1)C(F)(F)F` [CBK091339] it was 101%; in that of `Cn1c(CNC(=O)c2ccc(Cl)cc2)nnc1SCC(=O)c1ccc(Br)cc1` [CBK266145], 88.4%.

Consider `Oc1ccc(Nc2cc(-c3ccc(Cl)cc3)ncn2)cc1` [CBK090751], for which the viability at 28.5 h, 10 µM was determined as 94.3%.

Take `O=C(CSc1ccc(Br)cc1)NCc1ccco1` [CBK269701]: the viability at 28.5 h, 10 µM amounted to 86.5%. On the same count and under the same terms, as for `CS(=O)(=O)N(CC(=O)Nc1ccc(S(=O)(=O)N2CCCCCC2)cc1)c1ccc(F)cc1` [CBK266932], the figure is 91.8%; as for `O=C(O)C1CCCCC1C(=O)NCCN1CCCCC1` (centres unmarked) [CBK287031], 91.4%. Consider `CC(NC(=O)N1CCN(c2cc(C(F)(F)F)ccn2)CC1)c1ccccc1` (centres unmarked) [CBK162350], for which the viability at 28.5 h, 10 µM turned out to be 91.7%. As for `CCCN1CCC(=NNC(=O)c2c[nH]c3ccccc23)CC1` [CBK262597], the viability at 28.5 h, 10 µM turned out to be 95.3%. Take `O=C(CSc1ccc(Cl)cc1)OCC(=O)c1ccccc1` [CBK264306]: the viability at 28.5 h, 10 µM was 106%. Consider `COCC(=O)N1CCc2sccc2C1c1ccc(NC(=O)c2ccccc2F)cc1` (centres unmarked) [CBK286469], for which the viability at 28.5 h, 10 µM is 87.5%.

For the compound `Cc1c(C(=O)N2CCn3nc(CO)cc3C2)n(C)c2ccc(F)cc12` [CBK306552], the viability at 28.5 h, 10 µM is 97.7%. For the compound `COc1cccc(C(=O)NCC(c2cccs2)N2CCOCC2)c1` (centres unmarked) [CBK305075], the viability at 28.5 h, 10 µM came to 90.7%. Still for that read-out and setting: as for `O=C(c1cccc(Br)c1)N1CCN(S(=O)(=O)N2CCOCC2)CC1` [CBK267470], the figure is 93.2%. On the same count and under the same terms, as for `O=C(/C=C/c1ccccc1[N+](=O)[O-])NCCN1CCOCC1` [CBK265596], the figure is 97.8%. `CCCCC1CCC(C(=O)O)CC1` (centres unmarked) [CBK122493]: the viability at 28.5 h, 10 µM worked out at 82.4%.

As to `COc1ccc(NC(=O)N[C@H]2[C@H](O)[C@@H](Sc3ccccc3)[C@@H]3OC[C@H]2O3)cc1` [CBK288813], the viability at 28.5 h, 10 µM was 96.4%. Regarding `Cc1cccc(CC(=O)N2CCC(Cc3ccc(-c4cccc(C)c4)cc3)(C(N)=O)CC2)c1` [CBK285798], the viability at 28.5 h, 10 µM worked out at 104%. For `O=C(Nc1cccc(F)c1)C(c1ccccc1)N1CCOCC1` (centres unmarked) [CBK269191], the viability at 28.5 h, 10 µM is 84.5%. As to `COc1ccc(C(=O)N2CCC3(CCCN(Cc4nc5ccccc5[nH]4)C3)C2)cc1OC` (centres unmarked) [CBK132847], the viability at 28.5 h, 10 µM was determined as 93.9%. `Cc1ccc(C)c(C(C)NC(=O)C2CCCN(S(C)(=O)=O)C2)c1` (centres unmarked) [CBK304672]: the viability at 28.5 h, 10 µM came to 96.6%. The same measure, in the same setting: as for `Cc1cc(N2CCCC2)ccc1NC(=O)CCn1c(-c2cccs2)n[nH]c1=S` [CBK297883], the figure is 86.6%; as for `NC(=O)CN1CC2(CCN(Cc3cccc(C(F)(F)F)c3)CC2)c2ccccc21` [CBK126776], 93.1%; as for `CC1=C[C@@H](CO)[C@H](C(C)C)C[C@H]1Cc1nnc(Cc2c[nH]c3ccccc23)o1` [CBK289223], 89.1%.

Regarding `Cc1cc(C)n(C(C)CNC(=O)C(C)Cn2cccn2)n1` (centres unmarked) [CBK281639], the viability at 28.5 h, 10 µM turned out to be 87.6%. On to `CN(C)CCCN1C(=O)C(O)=C(C(=O)c2ccc(Br)cc2)C1c1cccnc1` (centres unmarked) [CBK264589], for which the viability at 28.5 h, 10 µM is 105%. Turning to `CN(CC(=O)Nc1ccccc1N1CCNCC1)C(=O)c1ccccc1` [CBK028287T], the viability at 28.5 h, 10 µM was determined as 99.3%.

Take `O=C(Cc1noc2ccccc12)Nc1ccc(N2CCCS2(=O)=O)cc1` [CBK304521]: the viability at 28.5 h, 10 µM came out at 107%. Consider `O=C1CC(C(=O)Nc2ccc3c(c2)OCO3)n2c(nc3ccccc32)N1` (centres unmarked) [CBK270177], for which the viability at 28.5 h, 10 µM was 93.6%. `Cc1nn(C)c(C)c1CC(=O)Nc1cccc(CN2CCCCC2)c1` [CBK304547]: the viability at 28.5 h, 10 µM came to 87.4%.

For the compound `CSCCN1CCC(Oc2nccnc2OC2CCCCC2)CC1` [CBK082873T], the viability at 28.5 h, 10 µM came to 97%. For the compound `CCCCc1c(O)c2ccccc2n(Cc2ccccc2)c1=O` [CBK219416], the viability at 28.5 h, 10 µM was found to be 106%.

With `CCOc1ccc(N2C(=O)CC(N3CCN(CCc4ccncc4)CC3)C2=O)cc1` (centres unmarked) [CBK269930], the viability at 28.5 h, 10 µM was 106%. In the case of `CC(C)(C)c1oc(C(=O)O)cc1CN1CCCC1` [CBK287136], the viability at 28.5 h, 10 µM is 84.7%. For `CCc1cn(C[C@H](NC(=O)c2ccco2)C(=O)O)c(=O)[nH]c1=O` [CBK289670], the viability at 28.5 h, 10 µM worked out at 86%. Turning to `c1ccc(Oc2ccccc2-c2ccc(Nc3ccc(N4CCOCC4)cc3)nc2)cc1` [CBK036913], the viability at 28.5 h, 10 µM was 108%. As for `O=C(O)c1cc(S(=O)(=O)Nc2ccccc2C(=O)O)ccc1Br` [CBK262371], the viability at 28.5 h, 10 µM turned out to be 98.8%. `CCCC/C=C/c1ccc(Nc2ccc3c(c2)OCCO3)nc1` [CBK037774]: the viability at 28.5 h, 10 µM was found to be 93.3%. As for `FC(F)(F)Oc1ccc(-c2cc(NCCc3ccccn3)ncn2)cc1` [CBK037732], the viability at 28.5 h, 10 µM worked out at 98.2%. In the case of `CCN(CC)CCC(C(=O)c1ccccc1)S(C)(=O)=O` (centres unmarked) [CBK022802], the viability at 28.5 h, 10 µM amounted to 88.8%.

`COCCNc1nccnc1-c1cnc(OC)nc1OC` [CBK088558]: the viability at 28.5 h, 10 µM was found to be 109%.

Turning to `Cc1ccc(CN(CCCn2ccnc2)Cc2ccsc2)o1` [CBK283253], the viability at 28.5 h, 10 µM worked out at 96.4%. Turning to `CC1CN(Cc2c(C(F)(F)F)[nH]c3ncccc23)CC(C)O1` (centres unmarked) [CBK285344], the viability at 28.5 h, 10 µM was 88.5%. For `CCOc1ccsc1C(=O)N1CCc2ccccc21` [CBK200410], the viability at 28.5 h, 10 µM amounted to 100%.

`CC(Cc1ccccn1)NC(=O)c1cc(-c2ccccc2F)no1` (centres unmarked) [CBK281421]: the viability at 28.5 h, 10 µM worked out at 91.1%.

Take `COc1cccc(OCCCCCc2c(C)n[nH]c2C)c1` [CBK261805]: the viability at 28.5 h, 10 µM was 104%. `Cc1nc2ccc(C(=O)N3CCN(C(=O)c4ccc(Cl)cc4)CC3)cc2nc1C` [CBK296647]: the viability at 28.5 h, 10 µM was 85%. For `Cc1ccccc1-c1ccccc1CC1(C(N)=O)CCN(C(=O)c2ccccc2)CC1` [CBK285721], the viability at 28.5 h, 10 µM was found to be 89.9%.

Turning to `CC(Nc1nc(-c2ccc([N+](=O)[O-])cc2)nc2ccccc12)c1ccccc1` (centres unmarked) [CBK264767], the viability at 28.5 h, 10 µM came to 88.3%. Turning to `Cn1ccc(C(=O)N2CCCC(c3cc4ncccc4[nH]3)C2)n1` (centres unmarked) [CBK283412], the viability at 28.5 h, 10 µM was 89.8%. Regarding `O=C(Cc1ccc(F)cc1)N1CCC(O)(c2ccccn2)CC1` [CBK283588], the viability at 28.5 h, 10 µM was found to be 97%. In the case of `Cc1nccn1CCC(=O)NCCc1ccc(N(C)C)cc1` [CBK281954], the viability at 28.5 h, 10 µM came out at 82.6%.

Take `O=C(CN1C(=O)N2CCCN=C2c2ccc(Cl)cc21)NC1CC1` [CBK284388]: the viability at 28.5 h, 10 µM amounted to 89%. Consider `CSc1ncc(Cl)c(C(=O)Nc2nnc(SC/C=C/c3ccccc3)s2)n1` [CBK268691], for which the viability at 28.5 h, 10 µM was determined as 93.5%. Take `O=C(CNC(=O)C1CCCCC1)NNC(=O)c1sc2ccccc2c1Cl` [CBK267903]: the viability at 28.5 h, 10 µM amounted to 98.8%.

The data set is the same for the next values; noted with them: human, hela cells, % viability, bulk resorufin, single well.
In the case of `COC(=O)c1nn(Cc2ccc(OC)cc2)c2ccccc12` [CBK093526], the viability at 28.5 h, 10 µM stood at 31.4%.

For `N#Cc1cccc(-c2ccc3c(c2)COC2(CCN(C(=O)Cc4c[nH]c5ccccc45)CC2)O3)c1` [CBK116346], the viability at 28.5 h, 10 µM came to 99.1%.

With `O=C1NC(=O)C(CCc2ccccn2)(CCc2ccccn2)C(=O)N1c1ccc(F)cc1` [CBK268816], the viability at 28.5 h, 10 µM came out at 93%.
